In US6461997B1, “Triazole sulfones having herbicidal activity” (Monsanto Technology LLC, priority 1999, dated 2002):

Legend:
DIGSA (large crabgrass) = assay: Pre-emergence herbicidal activity, warm season; type: in vivo, Digitaria sanguinalis; details: GR80 = lowest tested rate (300, 100, 30, 10 g/ha) with 80% or greater inhibition; approx. 14 days after treating; 30/21° C.
How it was run: (§1)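 Under 18/13 °C (ALOMY, POLCO) or 30/21 °C (PANMI, DIGSA) day/night, pre-emergence soil-surface treatments at 300, 100, 30 and 10 g/ha were evaluated after roughly 14 days. GR80 reflects percent inhibition relative to untreated plants.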

[1] = system: AGRRE (quackgrass (seedling)); assay: Post-emergence herbicidal activity, cool season; type: in vivo, Elymus repens; details: abraded plants sprayed at 300, 100, 30 and 10 g/ha; about 14 days after treatment
How it was run: (§2)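 Greenhouse test on sand-abraded seedlings sprayed 9 to 14 days after planting at 300, 100, 30 and 10 g/ha; GR80 from percent inhibition versus controls at approximately 14 days.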

STEME (common chickweed) = assay: Pre-plant incorporated (PPI) herbicidal activity, cool season; type: in vivo, Stellaria media; details: for PPI activity GR80, STEME: pre-plant incorporated, lowest tested rate with 80% or greater inhibition, about 14 days
Method: (§3) In another set of tests, the pre-plant incorporated (PPI) activity of compounds of this invention was evaluated on the same species as for the pre-emergence tests described above. In the PPI tests the following procedure, designed to simulate PPI application, was used.
(§4) A pre-prepared topsoil mixture (described above) was placed in a pot and compacted to a depth of 1.0 to 1.25 cm from the top of the pot. Seeds of each of several monocotyledonous and dicotyledonous annual plant species were placed on top of the soil. A sufficient quantity of soil to cover the seeds and level fill the pot was weighed into an open container. A known amount of the test compound was dissolved or suspended in an organic solvent and applied by spraying to this cover soil. The cover soil was thoroughly mixed to distribute the test compound throughout the cover soil, and was then applied as a cover layer over the seeds. Untreated soil was used as a cover layer for control pots. After treatment the plants were placed in a greenhouse where they received 0.64 cm of overhead irrigation. All subsequent watering consisted of a light overhead mist and/or subirrigation as needed for germination and growth. Tables 9 and 10 below relate to warm season plant species which were placed after pre-emergence treatment in a greenhouse with a 30/21° C. day/night temperature regime. Tables 11 and 12 below relates to cool season plant species placed after pre-emergence treatment in a greenhouse or growth chamber with an 18/13° C. day/night temperature regime. Only the compounds of Examples 1, 6, 8, 11, 13 and 15-20 were included in PPI tests.
(§5) Approximately 14 days after planting and treating, the plants were observed and herbicidal efficacy recorded as percent inhibition by comparison with untreated plants.

POLCO (wild buckwheat) = assay: Pre-emergence herbicidal activity, cool season; type: in vivo, Polygonum convolvulus; details: lowest tested rate with 80% or greater inhibition; rates 300, 100, 30, 10 g/ha; about 14 days
How it was run: as §1

SETVI (green foxtail) [2] = assay: Pre-emergence herbicidal activity, cool season; type: in vivo, Setaria viridis; details: GR80 = lowest tested rate (300, 100, 30, 10 g/ha) with 80% or greater inhibition; approx. 14 days after treating; 18/13° C.
How it was run: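 GR80 values derive from percent inhibition relative to untreated plants, read roughly 14 days after sowing and pre-emergence soil-surface treatment (compound in 50:50 acetone/water; rates typically 10, 30, 100, 300 g/ha). Warm-season weeds grew at 30/21° C day/night, cool-season ones at 18/13° C; an asterisk marks activity without reaching 80% at the highest rate.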

[3] = system: AEGCY (jointed goatgrass); assay: Pre-plant incorporated (PPI) herbicidal activity, cool season; type: in vivo, Aegilops cylindrica; details: for inhibition at 30 g/ha / inhibition at 100 g/ha / inhibition at 300 g/ha / inhibition at 900 g/ha / inhibition at 10 g/ha: Aegilops cylindrica, read-out: Percent inhibition AEGCY; for inhibition at 30 g/ha / inhibition at 100 g/ha / inhibition at 300 g/ha / inhibition at 900 g/ha / Percent inhibition AEGCY / inhibition at 10 g/ha: weed, PPI application; for PPI activity GR80, AEGCY: pre-plant incorporated, lowest tested rate with 80% or greater inhibition, about 14 days
Method: as §3, §4, §5

AVEFA (wild oat) = assay: Post-emergence herbicidal activity, cool season; type: in vivo, Avena fatua; details: abraded plants sprayed at 300, 100, 30 and 10 g/ha; about 14 days after treatment
How it was run: as §2

SETVI (green foxtail) [4] = assay: Post-emergence herbicidal activity, cool season; type: in vivo, Setaria viridis; details: abraded plants sprayed at 300, 100, 30 and 10 g/ha; about 14 days after treatment
How it was run: as §2

[5] = weed, PPI application, 100 g/ha
[6] = weed, PPI application, 300 g/ha
[7] = weed, PPI application, 900 g/ha

| Compound | Pre-emergence activity (GR80) DIGSA (DIGSA (large crabgrass)) | Post-emergence activity GR80, AGRRE [1] | PPI activity GR80, STEME (STEME (common chickweed)) | Pre-emergence activity GR80, POLCO (POLCO (wild buckwheat)) | Pre-emergence activity (GR80) SETVI (SETVI (green foxtail) [2]) | inhibition at 30 g/ha ([3]; 30 g/ha) | inhibition at 100 g/ha ([3]; 100 g/ha) | inhibition at 300 g/ha ([3]; 300 g/ha) | inhibition at 900 g/ha ([3]; 900 g/ha) | PPI activity GR80, AEGCY [3] | Post-emergence activity GR80, AVEFA (AVEFA (wild oat)) | Post-emergence activity GR80, SETVI (SETVI (green foxtail) [4]) | Percent inhibition AEGCY ([3]; 30 g/ha) | Percent inhibition AEGCY ([3]; 100 g/ha) | Percent inhibition AEGCY ([3]; 300 g/ha) | Percent inhibition AEGCY ([3]; 900 g/ha) | inhibition at 10 g/ha ([3]; 10 g/ha) | further results |
| --- | --- | --- | --- | --- | --- | --- | --- | --- | --- | --- | --- | --- | --- | --- | --- | --- | --- | --- |
| CCSC(F)(F)S(=O)(=O)c1ncn(C(=O)N(CC)CC)n1 [Example 8, 1-(N,N-diethylcarbamoyl)-3-[difluoro(ethylthio)methylsulfonyl]-1,2,4-triazole] | 100 g/ha | [empty] | 30 g/ha | [empty] | 100 g/ha | 0% | 50% | 40% | 20% | [empty] | [empty] | [empty] |  |  |  |  |  | inhibition at 30 g/ha (STEME (common chickweed); Stellaria media, weed, PPI application, 30 g/ha, read-out: Percent inhibition STEME): 80%; inhibition at 100 g/ha (STEME (common chickweed); Stellaria media, weed, PPI application, 100 g/ha, read-out: Percent inhibition STEME): 80%; inhibition at 300 g/ha (STEME (common chickweed); Stellaria media, weed, PPI application, 300 g/ha, read-out: Percent inhibition STEME): 95%; inhibition at 900 g/ha (STEME (common chickweed); Stellaria media, weed, PPI application, 900 g/ha, read-out: Percent inhibition STEME): 99% |
| CCN(CC)C(=O)n1cnc(S(=O)(=O)C(F)(F)SC)n1 [Example 9] | 100 g/ha | [empty] |  | [empty] | 100 g/ha |  |  |  |  |  | [empty] | [empty] | 0% | 20% | 30% | 40% |  | Percent inhibition STEME (STEME (common chickweed); weed, PPI application, 30 g/ha): 70%; Percent inhibition STEME (STEME (common chickweed); [5]): 95%; Percent inhibition STEME (STEME (common chickweed); [6]): 100%; Percent inhibition STEME (STEME (common chickweed); [7]): 100% |
| CCN(CC)C(=O)n1cnc(S(=O)(=O)C(F)(F)SCc2ccccc2)n1 [Example 10] | 100 g/ha | [empty] |  | [empty] | 300 g/ha |  |  |  |  |  | [empty] | [empty] | 0% | 20% | 30% | 20% |  | Percent inhibition STEME (STEME (common chickweed); weed, PPI application, 10 g/ha): 0%; Percent inhibition STEME (STEME (common chickweed); weed, PPI application, 30 g/ha): 0%; Percent inhibition STEME (STEME (common chickweed); [5]): 0%; Percent inhibition STEME (STEME (common chickweed); [6]): 0%; Percent inhibition STEME (STEME (common chickweed); [7]): 90%; Percent inhibition AEGCY ([3]; 10 g/ha): 0% |
| C=CCC(F)(F)S(=O)(=O)c1ncn(C(=O)N(CC)CC)n1 [Example 17, 1-(N,N-diethylcarbamoyl)-3-[(1,1-difluoro-3-butenyl)sulfonyl]-1,2,4-triazole] | 100 g/ha | [empty] | 10 g/ha | 100 g/ha | 100 g/ha | 0% | 0% | 20% | 40% | 100 g/ha | [empty] | [empty] |  |  |  |  | 0% |  |
| C=C(C)CC(F)(F)S(=O)(=O)c1ncn(C(=O)N(CC)CC)n1 [Example 18] | 100 g/ha | [empty] | 100 g/ha | 300 g/ha | 30 g/ha | 0% | 0% | 20% | 10% | * (activity observed, at least at highest rate, but <80% inhibition) | [empty] | [empty] |  |  |  |  | 0% |  |
| C=C(Br)CC(F)(F)S(=O)(=O)c1ncn(C(=O)N(CC)CC)n1 [Example 19] | 100 g/ha | [empty] | 100 g/ha | [empty] | 100 g/ha | 0% | 20% | 50% | 20% | 300 g/ha | [empty] | [empty] |  |  |  |  | 0% |  |
| C=C(CC(F)(F)S(=O)(=O)c1ncn(C(=O)N(CC)CC)n1)C[Si](C)(C)C [Example 20] | 100 g/ha | [empty] | * (activity observed, at least at highest rate, but <80% inhibition) | * (activity observed, at least at highest rate, but <80% inhibition) | 100 g/ha |  |  |  |  | * (activity observed, at least at highest rate, but <80% inhibition) | [empty] | [empty] | 0% | 0% | 0% | 0% |  | Percent inhibition AEGCY ([3]; 10 g/ha): 0% |
